In US7998681B2, “Diagnosis and therapy of antibody-mediated inflammatory auto-immune disorders” (Los Angeles Biomedical Research Institute at Harbor-UCLA …, priority 2000, dated 2011):

Test system: fibroblasts from patients with GD
Assay: T lymphocyte migration (chemotaxis) assay of conditioned medium from treated fibroblasts, GD donors
Format: cell-based, human
Conditions: IgG 100 ng/ml, IL-1β 10 ng/ml, 24 hours
Description: The general migration assay is described in detail in Sciaky, D., et al., “Cultured human fibroblasts express constitutive IL-16 mRNA: Cytokine induction of active IL-16 protein synthesis through a caspase-3-dependent mechanism,” J. Immunol. 164(7):3806-14 (2000), hereby incorporated fully by reference. Briefly, fibroblasts from TAO and normal orbital tissue were seeded in 24-well arrays and grown to confluence. Monolayers were shifted containing 1% FBS to which nothing, purified normal or TAO IgG was added for various time intervals. Medium was collected and stored until use at −80° C. Chemotaxis was examined using Boyden chambers to which NWNA-T lymphocytes were added as the cellular targets. 50 μl cell suspension (10^7 cells/ml) were placed in the upper compartments of 48-well micro-chemotaxis chambers separated from 32 μl of serum samples by 8 μm micropore nitrocellulose filters (Neuroprobe). These were incubated at 37° C. in 5% CO2 environment for 3 hr. Filters were fixed, stained with hematoxylin, dehydrated, mounted on glass slides and viewed by light microscopy. Lymphocyte migration was quantified by counting the total number of cells migrating beyond a fixed depth. This depth was set to routinely identify a baseline migration under control conditions of 10-15 cells per high power field. Five such fields were counted in duplicate for each sample and the means±SD were calculated and expressed as percentage values of baseline cell migration in control buffer alone (100%). For each set of experimental conditions, at least three separate determinations were performed. Differences between experimental groups were analyzed by the Student t test using absolute values obtained for lymphocyte migration and statistical difference was accepted at the 95% level of confidence.
To assess specificity for IL-16, experiments were conducted by incubating samples of culture media for 15 min with neutralizing concentrations of anti-IL-16 MAB (clone 14. 1, 10 μg/ml), which blocks the chemotactic activity of 50 ng/ml of rIL-16. Anti-RANTES MAB (5 μg/ml) having an ND50 of 200 ng/ml rRANTES was used to neutralize RANTES as described in Sciaky D., Brazer, W., Center, D. M., Cruikshank, W. W. and Smith, T. J.: Cultured human fibroblasts express constitutive IL-16 mRNA: Cytokine induction of active IL-16 protein synthesis through a caspase-3-dependent mechanism. J. Immunol. 164(7):3806-14, 2000).
Referring to FIGS. 3A-3C, serum concentrations of IL-16 are elevated in patients with active TAO. Moreover, both IL-16 and PGHS-2 protein can be detected in TAO orbital tissue. The concentration of IL-16 is determined in sera from either patients with Graves' disease or normal controls. The sera are subjected to an ELISA assay, which utilizes an anti-IL-16 specific antibody. IL-16 is detected by standard immunohistochemical techniques in thin sections harvested from affected orbital connective tissues from a patient with severe Graves' ophthalmopathy. In a separate measurement of IL-16 dependent T-cell migration, a panel of 11 different fibroblast strains from patients with Graves' disease and 5 from individuals without known thyroid disease were challenged with Graves' IgG (100 ng/ml), normal IgG (100 ng/ml) or IL-1β (10 ng/ml) for 24 hours and assessed for T cell migration activity and IL-16 production (Table II). Graves' IgG induced IL-16 dependent cell migration in 10 of the Graves' fibroblast strains which derived from orbit and skin from various anatomic regions. Included were strains from the pretibial skin as well as the abdominal wall and the neck. The latter two sites rarely manifest Graves' disease. A substantial fraction of Graves' IgG provoked T cell migration activity in most of these strains was resistant to neutralization with anti-IL-16. Similarly, chemoattractants produced by RA fibroblasts can be measured by T-cell migration. […]

IL-1β: pro-inflammatory cytokine used to activate fibroblasts
T Cell Migration (% control) (strain 1, Orbit): 194 +/− 11 % control
T Cell Migration +anti-IL-16 (strain 1, Orbit): 149 +/− 8 % control
T Cell Migration +anti-RANTES (strain 1, Orbit): 167 +/− 10 % control
T Cell Migration (% control) (strain 2, Orbit): 195 ± 13 % control
T Cell Migration +anti-IL-16 (strain 2, Orbit): 171 ± 7 % control
T Cell Migration +anti-RANTES (strain 2, Orbit): 170 ± 8 % control
T Cell Migration (% control) (strain 3, Abdominal skin): 195 +/− 13 % control
T Cell Migration +anti-IL-16 (strain 3, Abdominal skin): 171 +/− 7 % control
T Cell Migration +anti-RANTES (strain 3, Abdominal skin): 171 +/− 8 % control
T Cell Migration (% control) (strain 4, Orbit): 236 ± 19 % control
T Cell Migration +anti-IL-16 (strain 4, Orbit): 175 ± 12 % control
T Cell Migration +anti-RANTES (strain 4, Orbit): 188 ± 9 % control
T Cell Migration (% control) (strain 5, Abdominal skin): 144 ± 8 % control
T Cell Migration +anti-IL-16 (strain 5, Abdominal skin): 128 ± 8 % control
T Cell Migration +anti-RANTES (strain 5, Abdominal skin): 131 ± 5 % control
T Cell Migration (% control) (strain 6, Neck skin): 211 ± 13 % control
T Cell Migration +anti-IL-16 (strain 6, Neck skin): 148 ± 10 % control
T Cell Migration +anti-RANTES (strain 6, Neck skin): 178 ± 12 % control
T Cell Migration (% control) (strain 7, Pretibial skin): 236 ± 19 % control
T Cell Migration +anti-IL-16 (strain 7, Pretibial skin): 175 ± 12 % control
T Cell Migration +anti-RANTES (strain 7, Pretibial skin): 188 ± 9 % control
T Cell Migration (% control) (strain 8, Pretibial skin): 204 ± 14 % control
T Cell Migration +anti-IL-16 (strain 8, Pretibial skin): 164 ± 10 % control
T Cell Migration +anti-RANTES (strain 8, Pretibial skin): 173 ± 8 % control
T Cell Migration (% control) (strain 9, Orbit): 243 +/− 13 % control
T Cell Migration +anti-IL-16 (strain 9, Orbit): 167 +/− 11 % control
T Cell Migration +anti-RANTES (strain 9, Orbit): 189 +/− 10 % control
T Cell Migration (% control) (strain 10, Orbit): 248 +/− 19 % control
T Cell Migration +anti-IL-16 (strain 10, Orbit): 189 +/− 14 % control
T Cell Migration +anti-RANTES (strain 10, Orbit): 206 +/− 12 % control
T Cell Migration (% control) (strain 11, Orbit): 210 +/− 13 % control
T Cell Migration +anti-IL-16 (strain 11, Orbit): 162 +/− 11 % control
T Cell Migration +anti-RANTES (strain 11, Orbit): 183 +/− 6 % control
